Assay results taken from ChEMBL document CHEMBL1926605, “Synthesis, structure-activity relationships, and mechanism of action of anti-HIV-1 lamellarin α 20-sulfate analogues” (Bioorg Med Chem, 2011).
Activity calls are given as the source filed them. The calls are words filed in the database; no cut-off is given here.

How the values were obtained:
[1] = tested on: Human immunodeficiency virus 1; experiment: Antiviral activity against HIV1 in COS7 cells expressing HXB2 Env, R8.91, and pTY-EFnLacZ assessed as reduction of viral vector infection into human HeLa cells expressing CD4 at 100 uM after 2 days using 5-bromo-4-chloro-3-indolyl-beta-D-galactopyranoside staining; assay type: functional, organism-based
[2] = tested on: Human immunodeficiency virus 1; experiment: Antiviral activity against LacZ-containing HIV1 in COS7 cells expressing HXB2 Env, R8.91, and pTY-EFnLacZ assessed as reduction of viral vector infection into human HeLa cells expressing CD4 after 2 days using 5-bromo-4-chloro-3-indolyl-beta-D-galactopyranoside staining; assay type: functional, organism-based; conditions: Human immunodeficiency virus 1, HeLa, 48 h
[3] = tested on: HeLa; experiment: Cytotoxicity against human HeLa cells expressing CD4 after 24 hrs by WST-1 assay; assay type: cell-based
[4] = tested on: HeLa; experiment: Cellular uptake in human HeLa cells expressing CD4 at 100 uM after 24 hrs by confocal laser scanning microscopy analysis; assay type: ADME, cell-based
[5] = tested on: HeLa; experiment: Cellular uptake in human HeLa cells expressing CD4 at 100 uM after 24 hrs by confocal laser scanning microscopy analysis in presence of methanol; assay type: ADME, cell-based
[6] = tested on: Human immunodeficiency virus 1; experiment: Antiviral activity against HIV1 infected in MAGIC5 cells co-cultured with Cos7 cells assessed as inhibition of viral envelope mediated cell-cell fusion at 100 uM after 24 hrs by beta galactosidase assay; assay type: functional, organism-based; conditions: COS-7
[7] = tested on: HeLa; experiment: Cytotoxicity against human HeLa cells by MTT assay; assay type: cell-based

Row | SMILES | Activity [1] | IC50 [2] [µM] | IC50 [3] [µM] | Drug uptake [4] | Drug uptake [5] | inhibition [6] | Activity [7] [µM]
1 | COc1ccc(-c2c3c4cc(OC)c(OS(=O)(=O)[O-])cc4oc(=O)c3n3ccc4cc(OS(=O)(=O)[O-])c(OC)cc4c23)cc1OS(=O)(=O)[O-].[Na+].[Na+].[Na+] | Active | 20.7 | > 100 | Not Active | Active | Active | 
2 | COc1ccc(-c2c3c4cc(OC)c(OS(=O)(=O)[O-])cc4oc(=O)c3n3ccc4cc(OC)c(OC)cc4c23)cc1O.[Na+] | Active | 13 | > 100 | Not Active | Active | Active | 274
3 | COc1ccc(-c2c3c4cc(OC)c(O)cc4oc(=O)c3n3ccc4cc(OC)c(OC)cc4c23)cc1O |  | > 100 |  | Active | Active |  | 
4 | COc1cc2ccn3c(c(-c4ccc(OC)c(OS(=O)(=O)[O-])c4)c4c5cc(OC)c(OS(=O)(=O)[O-])cc5oc(=O)c43)c2cc1OC.[Na+].[Na+] | Active | 15.1 | > 100 | Not Active | Active | Active | 
5 | COc1ccc(-c2c3n(c4c(=O)oc5cc(OS(=O)(=O)[O-])c(OC)cc5c24)CCc2cc(OC)c(OC)cc2-3)cc1O.[Na+] | Active | 15.3 | > 100 | Not Active | Active | Active | 
6 | COc1cc2c(cc1O)oc(=O)c1c2c(-c2ccc(OC)c(OS(=O)(=O)[O-])c2)c2c3cc(OC)c(OC)cc3ccn21.[Na+] | Active | 14.4 | > 100 | Not Active | Active | Active | 
7 | COc1ccc(-c2cn(CCc3ccc(OC)c(OC)c3)c3c(=O)oc4cc(OS(=O)(=O)O)c(OC)cc4c23)cc1O |  | > 100 |  |  |  | inactive | 
